Assay results from patent US8367887B2, “Normal-tension glaucoma model and method for evaluation of test substances by using same” (Shinshu University, priority 2007, dated 2013).
Where a name gives a salt, the structure may show the parent alone.

Key:
[1] = tested on: retinal ganglion cells; experiment: Screening of test substances: protection of retinal ganglion cells from NMDA-induced apoptosis in wild-type and NF-κBp50-deficient mice; assay type: in vivo, mouse; details: 5 mM NMDA into vitreous; for effect of protecting retinal ganglion cells from NMDA-induced apoptosis (conclusion in words): wild-type and NF-κBp50-deficient mice, 24 hours
Description: (§1) Intravitreal NMDA injection was performed. 2 μl of 5 mM solution of NMDA in buffered saline solution (BSS) was injected into the vitreous of the left eye of each mouse aged 2 months. The right eyes were injected with BSS alone. At 24 hours and 4 days after injection, the eyes were enucleated and fixed in 4% paraformaldehyde in PB, followed by dehydration and paraffin embedding. Tranverse sections were made through the optic disc and stained with hematoxylin and eosin (H&E). Cells of 0.35 mm length at 0.3 mm from the edge of the optic disc in the ganglion cell layer were counted except for cells infiltrating the ganglion cell layer. The average number of cells per field was analyzed, and statistical differences were analyzed by the Student's t test.
By intraperitoneal administration, phosphate buffered saline (PBS) as control substance was respectively administered to wild-type mice and NF-κBp50-deficient mice once daily for 7 days. 5 mM of NMDA was directly administered into vitreous of the mice, and then the number of retinal ganglion cells after 24 hours was counted.
By intraperitoneal administration, 10 mg/kg of memantine hydrochloride, which is used as a curative medicine for Alzheimer type dementia and is an antagonist of NMDA receptor as one of glutamic acid receptor, was respectively administered to wild-type mice and […] mice once daily for 7 days. 5 mM of NMDA was directly administered into vitreous of the mice, and then the number of retinal ganglion cells after 24 hours were counted.
100 mg/kg of lomerizine hydrochloride, which is used as a curative medicine for migraine and is a piperazine-type calcium inhibitor, was respectively administered orally via catheters to wild-type mice and NF-κBp50-deficient mice once daily for 7 days. 5 mM of NMDA was directly administered into vitreous thereof, and then the number of retinal ganglion cells after 24 hours was numerated.
By intraperitoneal administration, 10 mg/kg of MK-801, which is NMDA receptor antagonist and is (5S,10R)-[…]-5-methyl-10,11-dihydro-5H-dibenzo[a,d]-cyclo-hepten-5,10-imine hydrogen maleate, was respectively administered to wild-type mice and NF-κBp50-deficient mice once daily for 7 days. 5 mM of NMDA was directly administered into vitreous thereof, and then the number of retinal ganglion cells after 24 hours was counted.
A control group was kept alike with administration for 2 weeks instead of administration of PBS for 7 days under above-mentioned control group. On the other hand, 3 mg/kg of […] was respectively administered to wild-type mice and NF-κBp50-deficient mice once daily for 2 weeks by intraperitoneal administration. 5 mM of NMDA was directly administered into vitreous thereof, and then the number of retinal ganglion cells after 24 hours was counted.

[2] = tested on: retinal ganglion cells; experiment: Susceptibility of NMDA-induced neurotoxicity (intravitreal NMDA, count of live ganglion cells) in wild-type and NF-κBp50-deficient mice; assay type: in vivo, mouse; details: for cell death in GCL (ganglion cell layer): 2 months old, 10 nmol NMDA intravitreal, 24 hours, FIG. 5
Description: as §1
Since NMDA receptor-mediated excitotoxicity has been reported to contribute to glaucomatous neuropathy and the NMDA receptor-mediated […] leads apoptosis of the neurons, the effect of NF-κBp50 on NMDA-induced neurotoxicity was examined. NMDA has excitotoxicity at a high concentration of 100 nmol which promptly leads cell death. The results of histological examination of the retinas at 24 hours after intravitreal injection of 10 nmol NMDA, which is a relatively low concentration as for NMDA-induced neurotoxicity, are shown in FIG. 5.
The live cells were counted in length of 0.35 mm at 0.3 mm each from the edge of the optic disc. Bar graphs show the number of cells in GCL at time before and 24 hours after NMDA-treatment. The average number of cells per field was analyzed by the two-tailed t-test. Statistical differences were analyzed by the Student's t test. Data are mean±SEM (n=6 to 7 mice). *1p<0.01 versus wild-type mice. *2p<0.01 versus wild-type mice.
[…] of NMDA were directly administered into vitreous respectively, and then the number of live ganglion cells was counted. As a control, the number of live ganglion cells without administration of NMDA was also counted. […] On the other hand, in the case of wild-type mice and NF-κBp50-deficient mice with injection of […] NMDA, which is a relatively low concentration, while almost all of the ganglion cells in wild-type mice survived at 4 days after NMDA treatment, about 60% of the ganglion cells in NF-κBp50-deficient mice were dead within 24 hours by apoptosis and moreover almost all of them were dead within 96 hours.

[3] = wild-type mice and NF-κBp50-deficient mice, injection of 50 mM NMDA into vitreous, FIG. 6

## CC12CC3CC(C)(C1)CC(N)(C3)C2 [memantine hydrochloride]
[1]; NF-κBp50-deficient mice, 10 mg/kg intraperitoneal once daily for 7 days, FIG. 7b
  retinal ganglion cells dead by apoptosis within 24 hours after administration of NMDA: about 15%
[1]
  effect of protecting retinal ganglion cells from NMDA-induced apoptosis (conclusion in words): had pharmacological effects of protecting retinal ganglion cells from NMDA-induced apoptosis
[1]; wild-type mice, 10 mg/kg intraperitoneal once daily for 7 days, FIG. 7b
  retinal ganglion cells dead by apoptosis within 24 hours after administration of NMDA: about 3%

## COc1ccc(CN2CCN(C(c3ccc(F)cc3)c3ccc(F)cc3)CC2)c(OC)c1OC [lomerizine hydrochloride]
[1]; NF-κBp50-deficient mice, 100 mg/kg orally via catheters once daily for 7 days, FIG. 7c
  retinal ganglion cells dead by apoptosis within 24 hours after administration of NMDA: no more than 28%
[1]; wild-type mice, 100 mg/kg orally via catheters once daily for 7 days, FIG. 7c
  retinal ganglion cells dead by apoptosis within 24 hours after administration of NMDA: about 2%

## C[C@]12N[C@H](Cc3ccccc31)c1ccccc12 [MK-801, (5S,10R)-(−)-5-methyl-10,11-dihydro-5H-dibenzo[a,d]-cyclo-hepten-5,10-imine hydrogen maleate]
[1]; NF-κBp50-deficient mice, 10 mg/kg intraperitoneal once daily for 7 days, FIG. 7d
  retinal ganglion cells dead by apoptosis within 24 hours after administration of NMDA: no more than 9%
[1]
  effect of protecting retinal ganglion cells from NMDA-induced apoptosis (conclusion in words): had pharmacological effects of protecting retinal ganglion cells from NMDA-induced apoptosis
[1]; wild-type mice, 10 mg/kg intraperitoneal once daily for 7 days, FIG. 7d
  retinal ganglion cells dead by apoptosis within 24 hours after administration of NMDA: about 2%

## C=CC[C@@H]1/C=C(\C)C[C@H](C)C[C@H](OC)[C@H]2O[C@@](O)(C(=O)C(=O)N3CCCC[C@H]3C(=O)O[C@H](/C(C)=C/[C@@H]3CC[C@@H](O)[C@H](OC)C3)[C@H](C)[C@@H](O)CC1=O)[C@H](C)C[C@@H]2OC [KF506]
[1]; NF-κBp50-deficient mice, 3 mg/kg intraperitoneal once daily for 2 weeks, FIG. 7f
  retinal ganglion cells dead by apoptosis within 24 hours after administration of NMDA: no more than 34%
[1]; wild-type mice, 3 mg/kg intraperitoneal once daily for 2 weeks, FIG. 7f
  retinal ganglion cells dead by apoptosis within 24 hours after administration of NMDA: about 5%

## CN[C@H](CC(=O)O)C(=O)O [NMDA, N-methyl D aspartate]
[2]; NF-κBp50-deficient mice
  cell death in GCL (ganglion cell layer): markedly induced cell death in GCL
[2]; NF-κBp50-deficient mice, injection of 5 nM NMDA into vitreous, FIG. 6
  ganglion cells dead within 96 hours: almost all
[2]; NF-κBp50-deficient mice, injection of 5 mM NMDA into vitreous, FIG. 6
  ganglion cells dead within 24 hours by apoptosis: about 60%
[2]; [3]
  ganglion cells dead by apoptosis within 24 hours after NMDA treatment: about half
  ganglion cells dead by apoptosis within 96 hours (4 days): almost all
[2]; wild-type mice
  cell death in GCL (ganglion cell layer): no significance was observed
[2]; wild-type mice, injection of 5 mM NMDA into vitreous, FIG. 6
  ganglion cells survived at 4 days after NMDA treatment: almost all
